From patent publication US20090291964A1, “Potentiators of Antibacterial Activity” (priority 2003, published 2009)

Columns and labels:
Assay type in all cases: cell-based
[1] = system: permeability mutant strains of E. coli; assay: MIC of EtBr in presence and absence of EPI
Excerpt: (§1) EtBr is a general substrate for many different efflux pumps in bacteria. Markham et al., “Multiple Novel Inhibitors of the NorA Multidrug Transporter of Staphylococcus aureus”, Antimicrob. Agents Chemother. 43:2404-2408 (1999). Since EtBr is a non-specific DNA intercalator, the only known mechanism of resistance to EtBr is via efflux. Markham et al., “Multiple Novel Inhibitors of the NorA Multidrug Transporter of Staphylococcus aureus”, Antimicrob. Agents Chemother. 43:2404-2408 (1999).

B. subtilis = assay: MIC of EtBr in presence and absence of EPI; settings: B. subtilis wild type, EPI up to 100 μg/ml, data not shown
Excerpt: as §1

[2] = system: wild type gram negative organisms (E. coli, P. aeruginosa, and H. influenzae); assay: MIC of EtBr in presence and absence of EPI; settings: all wild type gram-negative organisms, compared with gram-positive
Excerpt: as §1

S. aureus ATCC 29213 [3] = assay: MIC by NCCLS microdilution, antibacterial agents with and without EPI; settings: at 100 μg/ml
S. aureus ATCC 29213 [4] = assay: Ethidium bromide efflux fluorescence assay; settings: EPIs at 4 times MEC for EtBr, A-106 at 100 μg/ml; versus control cells without EPI
Protocol: S. aureus cells were loaded with EtBr as described in Example 1. EPIs were used at 4XMEC (minimal effective concentration) (25 μg/ml reserpine; 100 μg/ml VX-710 (compound A-106 in Table A-2); 6.25 μg/ml VX-853 (compound C-9 in Table C-I), and no EPI control—as labeled). Fluorescence was continuously monitored over time at room temperature and results are an average of at least 3 replicates.
Ethidium bromide (EtBr) efflux assays with S. aureus were performed using the method described by Markham et al. (Markham, et al., “Multiple Novel Inhibitors of the NorA Multidrug Transporter of Staphylococcus aureus”, Antimicrob. Agents Chemother. 43:2404-2408 (1999)). […] Ethidium bromide efflux was determined by continuously monitoring fluorescence at an excitation wavelength of 530 nm and an emission wavelength of 600 nm in a black 96-well polystyrene plate with clear, flat bottom (Costar #3904, Cambridge, Mass.) using a SpectraMax Gemini spectrofluorimeter (Molecular Devices, Sunnydale, Calif.). […]
Markham et al., “Multiple Novel Inhibitors of the NorA Multidrug Transporter of Staphylococcus aureus”, Antimicrob. […] Since ethidium only fluoresces when it is bound to nucleic acid inside of cells, a decrease in fluorescence over time is due to active efflux. […]

[5] = system: E. faecalis clinical isolates; assay: MIC90 studies: fluoroquinolone susceptibility of clinical isolate panel with EPI; settings: EPI at 50 μg/ml
Procedure, shortened: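 Fluoroquinolone MICs with efflux pump inhibitor measured against panels of resistant clinical isolates by NCCLS protocols. MIC90 taken across each panel. Oxacillin and vancomycin MICs run alongside to flag methicillin-resistant S. aureus and vancomycin-resistant E. faecalis isolates.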

[6] = E. faecalis clinical isolate 10
[7] = E. faecalis clinical isolate 11
[8] = E. faecalis clinical isolate 12
[9] = E. faecalis clinical isolate 13
[10] = E. faecalis clinical isolate 14
[11] = E. faecalis clinical isolate 15
[12] = E. faecalis clinical isolate 16
[13] = E. faecalis clinical isolate 17
[14] = E. faecalis clinical isolate 18
[15] = E. faecalis clinical isolate 19
[16] = E. faecalis clinical isolate 20
[17] = E. faecalis clinical isolate 21
[18] = E. faecalis clinical isolate 22
[19] = E. faecalis clinical isolate 23
[20] = E. faecalis clinical isolate 24
[21] = E. faecalis clinical isolate 25
[22] = E. faecalis clinical isolate 26

SMILES: COc1cc(C(=O)C(=O)N(C)[C@@H](Cc2ccc(Cl)cc2)C(=O)N(Cc2ccccc2)C(CCc2ccncc2)CCc2ccncc2)cc(OC)c1OC [C-9, (S)—N-Benzyl-2-(methyl-(2-oxo-2-(3,4,5-trimethoxyphenyl)acetyl)amino)-3-(4-chloro-phenyl)-N-(3-pyridin-4-yl-1-(2-pyridin-4-yl-ethyl)propyl)propionamide]
- efflux inhibitory activity [1]: some efflux inhibitory activity was observed
- reduction of the MIC of EtBr (B. subtilis): 8 fold
- activity against efflux of EtBr [2]: much less active
- intrinsic antibacterial activity of EPI (S. aureus ATCC 29213 [3]): no intrinsic antibacterial activity
- loss of EtBr fluorescence over time (FIG. 1) (S. aureus ATCC 29213 [4]): much more gradual loss of fluorescence
- Ciprofloxacin MIC with EPI ([5]; E. faecalis clinical isolate 1): 1 µg/mL
- Norfloxacin MIC with EPI ([5]; E. faecalis clinical isolate 1): 2 µg/mL
- Ciprofloxacin MIC with EPI ([5]; E. faecalis clinical isolate 2): 1 µg/mL
- Norfloxacin MIC with EPI ([5]; E. faecalis clinical isolate 2): 2 µg/mL
- Ciprofloxacin MIC with EPI ([5]; E. faecalis clinical isolate 3): 64 µg/mL
- Norfloxacin MIC with EPI ([5]; E. faecalis clinical isolate 3): 128 µg/mL
- Ciprofloxacin MIC with EPI ([5]; E. faecalis clinical isolate 4): 64 µg/mL
- Norfloxacin MIC with EPI ([5]; E. faecalis clinical isolate 4): 128 µg/mL
- Ciprofloxacin MIC with EPI ([5]; E. faecalis clinical isolate 5): 64 µg/mL
- Norfloxacin MIC with EPI ([5]; E. faecalis clinical isolate 5): 64 µg/mL
- Ciprofloxacin MIC with EPI ([5]; E. faecalis clinical isolate 6): 1 µg/mL
- Norfloxacin MIC with EPI ([5]; E. faecalis clinical isolate 6): 8 µg/mL
- Ciprofloxacin MIC with EPI ([5]; E. faecalis clinical isolate 7): 1 µg/mL
- Norfloxacin MIC with EPI ([5]; E. faecalis clinical isolate 7): 2 µg/mL
- Ciprofloxacin MIC with EPI ([5]; E. faecalis clinical isolate 8): 32 µg/mL
- Norfloxacin MIC with EPI ([5]; E. faecalis clinical isolate 8): 128 µg/mL
- Ciprofloxacin MIC with EPI ([5]; E. faecalis clinical isolate 9): 1 µg/mL
- Norfloxacin MIC with EPI ([5]; E. faecalis clinical isolate 9): 2 µg/mL
- Ciprofloxacin MIC with EPI [5, 6]: 64 µg/mL
- Norfloxacin MIC with EPI [5, 6]: 64 µg/mL
- Ciprofloxacin MIC with EPI [5, 7]: 32 µg/mL
- Norfloxacin MIC with EPI [5, 7]: 64 µg/mL
- Ciprofloxacin MIC with EPI [5, 8]: 1 µg/mL
- Norfloxacin MIC with EPI [5, 8]: 2 µg/mL
- Ciprofloxacin MIC with EPI [5, 9]: 0.5 µg/mL
- Norfloxacin MIC with EPI [5, 9]: 2 µg/mL
- Ciprofloxacin MIC with EPI [5, 10]: 0.5 µg/mL
- Norfloxacin MIC with EPI [5, 10]: 2 µg/mL
- Ciprofloxacin MIC with EPI [5, 11]: 2 µg/mL
- Norfloxacin MIC with EPI [5, 11]: 4 µg/mL
- Ciprofloxacin MIC with EPI [5, 12]: 1 µg/mL
- Norfloxacin MIC with EPI [5, 12]: 4 µg/mL
- Ciprofloxacin MIC with EPI [5, 13]: 1 µg/mL
- Norfloxacin MIC with EPI [5, 13]: 2 µg/mL
- Ciprofloxacin MIC with EPI [5, 14]: 64 µg/mL
- Norfloxacin MIC with EPI [5, 14]: 128 µg/mL
- Ciprofloxacin MIC with EPI [5, 15]: 1 µg/mL
- Norfloxacin MIC with EPI [5, 15]: 4 µg/mL
- Ciprofloxacin MIC with EPI [5, 16]: 1 µg/mL
- Norfloxacin MIC with EPI [5, 16]: 2 µg/mL
- Ciprofloxacin MIC with EPI [5, 17]: 1 µg/mL
- Norfloxacin MIC with EPI [5, 17]: 4 µg/mL
- Ciprofloxacin MIC with EPI [5, 18]: 64 µg/mL
- Norfloxacin MIC with EPI [5, 18]: 128 µg/mL
- Ciprofloxacin MIC with EPI [5, 19]: 32 µg/mL
- Norfloxacin MIC with EPI [5, 19]: 64 µg/mL
- Ciprofloxacin MIC with EPI [5, 20]: 32 µg/mL
- Norfloxacin MIC with EPI [5, 20]: 64 µg/mL
- Ciprofloxacin MIC with EPI [5, 21]: 64 µg/mL
- Norfloxacin MIC with EPI [5, 21]: 128 µg/mL
- Ciprofloxacin MIC with EPI [5, 22]: 64 µg/mL
- Norfloxacin MIC with EPI [5, 22]: 128 µg/mL
- trend in the reduction of MICs for ciprofloxacin and norfloxacin ([5]; E. faecalis isolates, Table 5B): less apparent
